Data reported in the Biogen ADME set (Fang et al. 2023).
Converted amounts (≈) assume the structure as drawn.

Conditions: for aqueous solubility: pH 6.8

Row | Structure (SMILES) | MDR1-MDCK efflux ratio | intrinsic clearance, human liver microsomes [mL/min/kg] | intrinsic clearance, rat liver microsomes [mL/min/kg] | aqueous solubility [µg/mL] | fraction unbound, human plasma | fraction unbound, rat plasma
1 | COc1ccc(-c2nnc(-c3ccccc3)o2)cc1OC | 0.227 | 49.4 | 50.8 | 4.34 (≈ 15.4 µM) |  | 
2 | Cc1nnc(CN(C)CC(C)Oc2ccc(Cl)c(Cl)c2)n1C (centres undefined) | 7.09 | 132 | 1440 | 33 (≈ 96.1 µM) | 0.0844 | 0.13
3 | CCNC(=O)C1CN(c2nc(C3CC3)nc3c2CCC3)C1 | 23.5 | ≤ 4.74 | 19.9 | 45 (≈ 157 µM) |  | 
4 | COc1cc(OC)cc(-c2c(C)ncnc2OC)c1 | 0.749 | ≤ 4.74 | 107 |  |  | 
5 | CCc1c(N)cnn1-c1ccccc1C | 0.677 | 8.11 | 165 | 37.1 (≈ 185 µM) |  | 
6 | Cc1ccc(-c2nc(NCc3ccco3)ncc2-c2cc(C)no2)cn1 | 0.989 | 87.5 | 492 | 10.3 (≈ 29.7 µM) |  | 
7 | O=C(OCc1cc(Cl)ccn1)c1ccc2[nH]c(C(F)F)nc2c1 | 1.37 | 515 | 1520 | 35 (≈ 104 µM) |  | 
8 | CC(C)C(=O)Nc1ccc2cnn(C(C)C)c2c1 | 1.42 | 14 | 55.8 | 23 (≈ 93.7 µM) |  | 
9 | O=c1c2oc3ccccc3c2ncn1Cc1ccc(F)c(F)c1 | 0.537 | 81.2 | 788 |  |  | 
10 | N=C(NC(=O)OCc1ccccc1)c1ccc(CN)cc1 |  |  |  | 30.6 (≈ 108 µM) |  | 
11 | NCCC(=O)Nc1ccc2[nH]c(=O)[nH]c2c1 |  |  |  | 143 (≈ 648 µM) |  | 
12 | c1ccc(C2(CNc3nc4ccccc4o3)CCOCC2)cc1 |  | 129 | 3400 |  |  | 
13 | COc1cccc(C2NC(=O)NC(C)=C2C(=O)OCc2ccc3c(c2)OCO3)c1 (centres undefined) |  |  |  | 18 (≈ 45.5 µM) |  | 
14 | Cc1ccc(S(=O)(=O)N2CCCc3ccc(NS(=O)(=O)c4cc(F)ccc4F)cc32)cc1 |  | 244 | 2260 |  |  | 
15 | COc1ccc(-n2cc3c(c2-c2ccccc2Br)c(=O)n(C)c(=O)n3C)cc1 | 0.946 | 37.5 | 521 | 4.92 (≈ 11.2 µM) |  | 
16 | O=C1CCCN1C(=O)COc1cccc(-c2nnco2)c1 | 0.91 | ≤ 4.74 | 27.5 | 54.9 (≈ 191 µM) |  | 
17 | Cn1nc(CNC(=O)C2CCC2)c2ccccc21 | 0.662 | 12.5 | 147 |  |  | 
18 | NC1CCCC(C(=O)Nc2cccc(N3CCNC3=O)c2)C1 (centres undefined) | 1.33 | ≤ 4.74 |  |  | 0.58 | 
19 | COc1ccc(CNC(=O)c2cc(-c3cncc(C)c3)ncc2-c2nccs2)nc1OC | 9.82 | 17.7 | 125 | 9.86 (≈ 22 µM) |  | 
20 | O=C1CN(C(=O)c2ccc(F)cc2)CCN1 | 2.27 | ≤ 4.74 | ≤ 10.7 | 47 (≈ 212 µM) |  | 
21 | CC1(C)CC(=O)C2=C(C1)NC(=O)CC2c1ccc(Br)cc1 (centres undefined) | 3.38 | 59.6 | 247 |  | 0.144 | 0.088
22 | Cc1cc(Nc2ccc(F)cn2)cc(C2CCN(C(=O)COc3ccccc3)C2)n1 (centres undefined) | 15.5 | 106 | 664 |  |  | 
23 | O=C1CCCN1c1ccc(CN2CCC(c3noc4cc(F)ccc34)CC2)cc1 | 0.963 | 26.7 | 109 | 58.6 (≈ 149 µM) |  | 
24 | NC(=O)C1(CCCc2ccccn2)CCNCC1 |  | ≤ 4.74 | 84.3 | 38.7 (≈ 156 µM) |  | 
25 | Cc1ccc(OCc2noc(-c3ccsc3)n2)cn1 | 0.524 | 56.1 | 204 | 52.7 (≈ 193 µM) |  | 
26 | CN(C)c1nccc(N2CCN(CCCCCF)CC2)n1 | 0.419 | 32.4 | 1440 |  |  | 
27 | O=C(CSC1CCCC1)NCCn1nc2c(cc1=O)CCCC2 | 9.14 | 71 | 1180 | 60.8 (≈ 181 µM) |  | 
28 | O=C1N=C(N2CCCCN2)S/C1=C\c1ccc(F)cc1O | 1.69 |  |  | 0.9 (≈ 2.93 µM) |  | 

Continued, values first:

Row | MDR1-MDCK efflux ratio | intrinsic clearance, human liver microsomes [mL/min/kg] | intrinsic clearance, rat liver microsomes [mL/min/kg] | aqueous solubility [µg/mL] | fraction unbound, human plasma | fraction unbound, rat plasma | Structure (SMILES)
29 | 1.3 | 57.9 | 607 |  |  |  | COc1cccc(C(=O)NCC(=O)Nc2cccc3c2CCCC3)c1
30 | 1.5 | 55 | 591 | 47.3 (≈ 136 µM) |  |  | COC(=O)c1c(C)[nH]c(C(=O)N(C)Cc2ccc(OC)c(F)c2)c1C
31 |  |  |  | 0.29 (≈ 0.992 µM) |  |  | Cc1ccc(NC(=O)c2nn(-c3ccccc3)nc2C)cc1
32 | 3.98 | 114 | 1110 |  |  |  | CC(C)CCNC(=O)CSc1nc2ccccc2[nH]1
33 |  | 22 | 154 |  | 0.0987 | 0.0447 | COc1cc2ncnc(Nc3cccc(O)c3)c2cc1OC
34 | 0.691 | ≤ 4.74 | ≤ 10.7 |  |  |  | O=C(NN1CCOCC1)c1ccc(Cl)c(Cl)c1
35 |  | 273 | 4500 | 53.2 (≈ 165 µM) |  |  | O=C(C1CCCN(c2cnccn2)C1)N1CCc2ccccc2C1 (centres undefined)
36 |  | 11.1 | 52.7 |  |  |  | CC(=O)c1ccc(-c2ccc(-c3nn[nH]n3)cc2)cc1
37 | 1.11 | 31.2 | 132 | 22.9 (≈ 65.2 µM) |  |  | COc1ccc(-c2nnc3ccc(C(F)(F)F)cn23)cc1OC(C)C
38 | 0.913 |  |  | 0.22 (≈ 0.711 µM) |  |  | N#Cc1cc2c(nc1SCc1cccnc1)CCCCCC2
39 | 0.607 | 13.5 | 29 | 59.1 (≈ 260 µM) |  |  | O=C(NCCc1ccccc1)c1cnccn1
40 | 0.838 | ≤ 4.74 | 28.4 | 39.2 (≈ 150 µM) |  |  | CC(C)CN1C(=O)C(=O)N(Cc2ccccn2)C1=O
41 | 18.1 | ≤ 4.74 | 27.9 |  |  |  | O=C(CCc1cn[nH]c1)NCCCn1cc(Cl)cn1
42 |  | ≤ 4.74 | 16.1 |  | 1 | 1 | COCCNC(=O)c1ccnc(C2CCNCC2)c1
43 |  | 13.7 | 210 |  |  |  | O=C(Cn1ncc2ccccc21)Nc1ccc2c(c1)CCO2
